Measured values reported in patent US20080262019A1, “Optical Isomers of (+) and (-)-Trans-2,3,4,4A,5,9B-Hexahydro-2,8-Dimethyl-1H-Pyrido[4,3-B] Indole” (priority 2005, published 2008).
“Also recorded” adds a separate entry of the source. Marks after values point to notes of the source that are not given here.

Tested on: male C57BL/6 mice
Assay: spontaneous orientation (patroling behavior) test in the closed cross maze
Type: in vivo
Settings: for F_PtrN, duration of the first patroling cycle (number of arm visits), M / L_TrnN, number of left turns, M / PatrlN, number of patrolling cycles, M / R_TrnN, number of right turns, M / S_PtrN, duration of the second patrolling cycle (number of arm visits), M / S_VisN, spontaneous stereotype behavior, M / T_GlTm, total time spent in the side arms of the maze, M / rl_Ind, asymmetry index of turns, M / F_ChTm, latency of the first arm visit, M / F_GlTm, length of the first arm visit, M / T_ChTm, total time spent in the central compartment of the maze, M / F_PasN, M: 1 hour after treatment; for nootropic effect (decrease in F_PtrN and S_PtrN, increase in PatrlN): single administration into stomach
Protocol: Preclinical evaluation of nootropic and sedative activity of the compounds was performed in mice using spontaneous orientation (patroling behavior) test in the cross maze, that allows simultaneous evaluation of nootropic, tranquilizing, sedative and psychostimulating effects of the compounds.
For evaluation of the exploratory behavior of the animals the closed cross maze test was used (Salimov R. M., Evaluation of the ordering of the way in the process of exploratory behavior in mice. Journal of the Higher Nervous Activity, 1988, v. 38, #3, pp. 569-571).
The mouse was placed in the central compartment of the maze and the sequence of its visits in different compartments was recorded semi-automatically.
Test was completed after 12 visits (Salimov R. M., Evaluation of the ordering of the way in the process of exploratory behavior in mice. Journal of the Higher Nervous Activity, 1988, v.38, #3, pp. 569-571; Salimov R. M., McBride W. J., Sinclair J. D., Lumeng L., Li T. -K. Performance in the cross-maze and slip funnel tests of four pairs of rat lines selectively bred for divergent alcohol drinking behavior. Addict. Biol. 1996a, 1:273-280; Salimov, R. M., McBride, W. J., McKenzie, D. L., Lumeng, L. and Li, T. -K. Ethanol consumption by adolescent alcohol-preferring P rats on subsequent behavioural performance in the cross-maze and slip funnel tests. Alcohol. 1996b, 13: c. 297-300).
Subsequent computerized analysis of the record singled out a number of behavioral characteristics. The most informative among them were:
1) The total time spent by the animal in the central compartment of the maze—T_ChTm, and the total time spent by the animal in the side arms of the maze—T_GlTm.
These variables reflect the level of the motor activity of the animal and also reflect the intensity of their exploratory drive for the new environment. […] Alcohol 20:61-68; 2000; Markina N. V., Salimov R. M., Poletaeva I. I. Exploratory behaviour of F2 crosses of mouse lines having selected for different brain weight: A multivariate analysis. Prog. Neuro-Psychopharmacol. Biol. Psychiat. 2004, 28(3):583-589).
2) The latency (variable F_ChTm) and the length of the first arm visit (F_GlTm).
These variables reflect the level of anxiety of the animal in the new environment and can be used for the evaluation of the tranquilizing (anxiolythic) effect of the drug (Salimov, R. M. Different behavioral patterns related to alcohol use in rodents: A factor analysis. Alcohol. 1999, 17:157-162).
3) The duration of the first patroling cycle—variable F_PtrN, and the duration of the second patrolling cycle—variable S_PtrN.
These variables are measured by the number of the animal's visits in the maze arms, performed by the animal for the exploration of the environment before it visits all 4 arms at least once (Salimov R. M., Evaluation of the ordering of the way in the process of exploratory behavior in mice. Journal of the Higher Nervous Activity, 1988, v.38, #3, pp. 569-571; Salimov R. M., McBride W. J., Sinclair J. D., Lumeng L., Li T. -K. Performance in the cross-maze and slip funnel tests of four pairs of rat lines selectively bred for divergent alcohol drinking behavior.
4) The number of patrolling cycles—variable PatriN, executed during the time of the experiment, as one of the characteristics of the efficiency of exploratory behavior. The more patroling cycles were accomplished, the more “systematic” and efficient was the exploration of the maze.
Variables from groups 3 and 4 can be used for the evaluation of the nootropic activity of the drugs.
5) The number of right turns—variable R_TrnN, and the number of left turns—variable L_TrN, executed by the animals moving from one arm of the maze to the other, as well as asymmetry index—variable rl_Ind—of these turns:
rl_Ind ═R_TrnN*(R_TrnN+L_TrnN)^−1
6) The spontaneous stereotype behavior—variable S_VisN, that characterizes animal's visiting two arms of the maze in turn more than two times in a row. […]

[1] = 2.5 mg/kg, single dose into stomach, N = 12
[2] = 2.5 mg/kg, single dose into stomach, N = 12, in s (unit assumed)
[3] = 5.0 mg/kg, single dose into stomach, N = 12
[4] = 5.0 mg/kg, single dose into stomach, N = 12, in s (unit assumed)
[5] = single administration, 2.5 and 5.0 mg/kg doses
[6] = 1 mg/kg, single dose, N = 15, in s (unit assumed)
[7] = single administration 0.5 mg/kg
[8] = 100 mg/kg, single dose into stomach, N = 15
[9] = 100 mg/kg, single dose into stomach, N = 15, in s (unit assumed)
[10] = 300 mg/kg, single dose into stomach, N = 15
[11] = 300 mg/kg, single dose into stomach, N = 15, in s (unit assumed)

SMILES: Cc1ccc2c(c1)[C@@H]1CN(C)CC[C@H]1N2 [Trans-(−)-isomer, (−)-trans-2,3,4,4a,5,9b-hexahydro-2,8-dimethyl-1H-pyrido[4,3-b]indole]
- F_PtrN, duration of the first patroling cycle (number of arm visits), M [1]: 6.10
- L_TrnN, number of left turns, M [1]: 3.00
- PatrlN, number of patrolling cycles, M [1]: 1.67
- R_TrnN, number of right turns, M [1]: 3.08
- S_PtrN, duration of the second patrolling cycle (number of arm visits), M [1]: 4.43*^+
- S_VisN, spontaneous stereotype behavior, M [1]: 6.33
- T_GlTm, total time spent in the side arms of the maze, M [1]: 166.78*^+
- rl_Ind, asymmetry index of turns, M [1]: 0.50
- F_ChTm, latency of the first arm visit, M [2]: 10.75
- F_GlTm, length of the first arm visit, M [2]: 20.27
- T_ChTm, total time spent in the central compartment of the maze, M [2]: 33.10
- F_PtrN, duration of the first patroling cycle (number of arm visits), M [3]: 5.42
- L_TrnN, number of left turns, M [3]: 3.83
- PatrlN, number of patrolling cycles, M [3]: 2.08
- R_TrnN, number of right turns, M [3]: 5.08*
- S_PtrN, duration of the second patrolling cycle (number of arm visits), M [3]: 5.00^+
- S_VisN, spontaneous stereotype behavior, M [3]: 4.17*
- T_GlTm, total time spent in the side arms of the maze, M [3]: 238.16*^+
- rl_Ind, asymmetry index of turns, M [3]: 0.58
- F_ChTm, latency of the first arm visit, M [4]: 8.33
- F_GlTm, length of the first arm visit, M [4]: 33.62*
- T_ChTm, total time spent in the central compartment of the maze, M [4]: 42.23*
- nootropic effect (improvement in the patrolling behavior, decrease in S_PtrN) [5]: nootropic effect
- sedative effect (reduction in the speed of movement in the maze; increase in T_ChTm and T_GlTm) [5]: sedative effect
- spontaneous stereotype behavior (variable S_VisN), change (single administration, 2.5 and 5.0 mg/kg doses, listed as (−)-trans-2,8-dimethyl-2,3,4,4a,5,9b-hexahydro-1H-pyrido[4,3-b]indole): significantly decreased; also recorded: decrease

SMILES: Cc1ccc2c(c1)[C@H]1CN(C)CC[C@@H]1N2 [Trans-(+)-isomer, (+)-trans-2,8-dimethyl-2,3,4,4a,5,9b-hexahydro-1H-pyrido[4,3-b]indole]
- F_PtrN, duration of the first patroling cycle (number of arm visits), M [1]: 5.75
- L_TrnN, number of left turns, M [1]: 4.17
- PatrlN, number of patrolling cycles, M [1]: 2.00
- R_TrnN, number of right turns, M [1]: 2.67
- S_PtrN, duration of the second patrolling cycle (number of arm visits), M [1]: 4.55*^+
- S_VisN, spontaneous stereotype behavior, M [1]: 5.75
- T_GlTm, total time spent in the side arms of the maze, M [1]: 271.98*^+
- rl_Ind, asymmetry index of turns, M [1]: 0.39
- F_ChTm, latency of the first arm visit, M [2]: 9.18
- F_GlTm, length of the first arm visit, M [2]: 22.91
- T_ChTm, total time spent in the central compartment of the maze, M [2]: 53.27*
- F_PtrN, duration of the first patroling cycle (number of arm visits), M [3]: 6.30
- L_TrnN, number of left turns, M [3]: 4.82
- PatrlN, number of patrolling cycles, M [3]: 1.64
- R_TrnN, number of right turns, M [3]: 3.09
- S_PtrN, duration of the second patrolling cycle (number of arm visits), M [3]: 5.43^+
- S_VisN, spontaneous stereotype behavior, M [3]: 5.55
- T_GlTm, total time spent in the side arms of the maze, M [3]: 391.25*^+
- rl_Ind, asymmetry index of turns, M [3]: 0.38
- F_ChTm, latency of the first arm visit, M [4]: 24.60*
- F_GlTm, length of the first arm visit, M [4]: 43.48*
- T_ChTm, total time spent in the central compartment of the maze, M [4]: 58.27*
- sedative effect compared with the other optic isomer ((+)- versus (−)-trans isomer, 2.5 and 5.0 mg/kg): higher sedative effect
- nootropic effect (improvement in the patrolling behavior, decrease in S_PtrN) [5]: nootropic effect
- sedative effect (reduction in the speed of movement in the maze; increase in T_ChTm and T_GlTm) [5]: sedative effect
- spontaneous stereotype behavior (variable S_VisN), change [5]: did not demonstrate this ability

SMILES: O=C(CCCN1CCC(O)(c2ccc(Cl)cc2)CC1)c1ccc(F)cc1 [Haloperidol, reference compound]
- F_PtrN, duration of the first patroling cycle (number of arm visits), M (1 mg/kg, single dose, N = 15): 6.09
- L_TrnN, number of left turns, M (1 mg/kg, single dose, N = 15): 3.36
- PatrlN, number of patrolling cycles, M (1 mg/kg, single dose, N = 15): 1.91
- R_TrnN, number of right turns, M (1 mg/kg, single dose, N = 15): 3.91
- S_PtrN, duration of the second patrolling cycle (number of arm visits), M (1 mg/kg, single dose, N = 15): 5.20
- S_VisN, spontaneous stereotype behavior, M (1 mg/kg, single dose, N = 15): 2.35*
- rl_Ind, asymmetry index of turns, M (1 mg/kg, single dose, N = 15): 0.54
- F_ChTm, latency of the first arm visit, M [6]: 19.30*
- F_GlTm, length of the first arm visit, M [6]: 31.85*
- T_ChTm, total time spent in the central compartment of the maze, M [6]: 100.65*
- T_GlTm, total time spent in the side arms of the maze, M [6]: 284.67*
- sedative effect (reduction in the speed of movement in the maze; increase in T_ChTm and T_GlTm) [7]: sedative effect
- spontaneous stereotype behavior (variable S_VisN), change [7]: decrease

SMILES: CN(C)CCOC(=O)COc1ccc(Cl)cc1 [Meclofenaxate, reference compound]
- F_PasN, M [8]: 3.6
- F_PtrN, duration of the first patroling cycle (number of arm visits), M [8]: 4.8*
- L_TrnN, number of left turns, M [8]: 4.5
- PatrlN, number of patrolling cycles, M [8]: 2.5*
- R_TrnN, number of right turns, M [8]: 3.8
- S_PtrN, duration of the second patrolling cycle (number of arm visits), M [8]: 4.6*
- S_VisN, spontaneous stereotype behavior, M [8]: 3.7
- rl_Ind, asymmetry index of turns, M [8]: 0.4
- F_ChTm, latency of the first arm visit, M [9]: 15.4
- F_GlTm, length of the first arm visit, M [9]: 29.1
- T_ChTm, total time spent in the central compartment of the maze, M [9]: 40.5
- T_GlTm, total time spent in the side arms of the maze, M [9]: 145.4
- nootropic effect (decrease in F_PtrN and S_PtrN, increase in PatrlN) (100 mg/kg): nootropic effect

SMILES: NC(=O)CN1CCCC1=O [Piracetam, reference compound]
- F_PasN, M [10]: 4.1
- F_PtrN, duration of the first patroling cycle (number of arm visits), M [10]: 4.5*
- L_TrnN, number of left turns, M [10]: 4.5*
- PatrlN, number of patrolling cycles, M [10]: 2.1
- R_TrnN, number of right turns, M [10]: 3.4*
- S_PtrN, duration of the second patrolling cycle (number of arm visits), M [10]: 5.4
- S_VisN, spontaneous stereotype behavior, M [10]: 4.3*
- rl_Ind, asymmetry index of turns, M [10]: 0.4*
- F_ChTm, latency of the first arm visit, M [11]: 11.6
- F_GlTm, length of the first arm visit, M [11]: 25.0
- T_ChTm, total time spent in the central compartment of the maze, M [11]: 46.1
- T_GlTm, total time spent in the side arms of the maze, M [11]: 135.1
- nootropic effect (decrease in F_PtrN and S_PtrN, increase in PatrlN) (300 mg/kg): nootropic effect
